Hyaluronidase and Collagenase data for one molecule are collected here from PMC7997182, “Unravelling the Dermatological Potential of the Brown Seaweed Carpomitra costata” (Marine Drugs, 2021).

SMILES strings stand for the structures.

For one test, the target named is T1, hyaluronidase.
T1 construct: gene SPAM1
Kind of test: hyaluronic acid turbidity, absorbance […] nm. It counts as biochemical. The settings on record: 37 °C; hyaluronic acid substrate pH 5.35; reference compound; printed interval does not contain the value.

The target of a further test is T2, collagenase (type IV).
T2 construct: gene colG; known from the kit
Kind of test: fluorogenic EnzChek gelatinase/collagenase kit. The note with it: per kit instructions; positive control. It counts as biochemical. The text has this:
fluorogenic EnzChek gelatinase/collagenase kit on collagenase (type IV)

On to `O=C(O[C@@H]1Cc2c(O)cc(O)cc2O[C@@H]1c1cc(O)c(O)c(O)c1)c1cc(O)c(O)c(O)c1` [EGCG, epigallocatechin gallate], for which the Hyaluronidase on hyaluronidase is 119.1 (126.1–320.4) µg/mL. Besides, the Collagenase on collagenase (type IV) was 4.8 (4.1–5.5) µg/mL.
